Experimental data from patent US11912693B2, “Compounds for modulating S1P1 activity and methods of using the same” (TREVENA, INC., priority 2017, dated 2024).

Columns and labels:
[1] = system: paclitaxel induced peripheral neuropathy; test: Reversal of allodynia induced by paclitaxel in mice (s.c. or p.o., von Frey frequency method); type: in vivo, c57bl/6 mice; conditions: Mus musculus, po, 1 h, 3 mg/kg p.o., tested 60 min after dosing, read-out: Screen @ 3 mg/kg po (% MPE)
Protocol: Compounds were tested for efficacy in mouse models of chemotherapy induced peripheral neuropathy. […] For these studies […]/6 mice are habituated to the test environment and baseline measurements of pain sensitivity are assessed. To determine mechanical responses, the threshold for responses to punctate mechanical stimuli (mechanical hyperalgesia) was tested according to the frequency method. In brief, the plantar surface of the animal hindpaw was stimulated with a single von Frey monofilament (0.4 g) for approximately 1-2 seconds. If there was a withdrawal response, it was recorded as a positive response. A response was defined as a lifting or shaking of the paw upon stimulation. This was repeated ten times for each mouse. The final measurement for each mouse is the % non-response to stimulation for the ten trials. The % non-response to stimulation is converted to a % MPE. For paclitaxel induced peripheral neuropathy, a series of injections of PAC (6 mg/kg, i.p.) on days 1, 3, 5 and 7 is used to induce peripheral neuropathy. After approximately 14 days from the initiation of PAC injections, animals are re-assessed for mechanical sensitivity. […] On test day animals are dosed with compounds either subcutaneously or orally and tested for mechanical response by the frequency method either 30 min (s.c.) or 60 min (p.o.) after drug administration. Data is presented as a % MPE. For oxaliplatin induced peripheral neuropathy, a series of injections of OXA (4 mg/kg, i.p.) on days 1-5 is used to induce peripheral neuropathy. After approximately 14 days from the initiation of PAC injections, animals are re-assessed for mechanical sensitivity. […] On test day animals are dosed with compounds subcutaneously and tested for mechanical response by the frequency method 30 min after drug administration. Data is presented as a % MPE. One or more of the compounds show reversal of chemotherapeutic induced peripheral neuropathy.

[2] = target: T1, human sphingosine-1-phosphate receptor 1 (S1P1) (Homo sapiens (Human), UniProt P21453); test: β-Arrestin2 recruitment assay (PathHunter), S1P1 CHO-K1 cells; type: cell-based; conditions: for Emax: CHO-K1, efficacy (SPAN) normalized to fingolimod, read-out: hS1P1 B-arrestin2 SPAN; for hS1P1 B-arrestin2 pEC50: β-arrestin2 recruitment, S1P1 CHO-K1 cells
Outline: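 Enzyme-fragment complementation read-out: agonist-driven β-arrestin2 binding to ProLink-tagged human S1P1 in stable CHO-K1 cells restores β-galactosidase, measured 1 h at room temperature after a 60 min 37° C. compound incubation. Potency as pEC50, efficacy relative to fingolimod (SPAN).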
Target sequence in this assay (P21453 whole entry, looked up, the tested form may be a part): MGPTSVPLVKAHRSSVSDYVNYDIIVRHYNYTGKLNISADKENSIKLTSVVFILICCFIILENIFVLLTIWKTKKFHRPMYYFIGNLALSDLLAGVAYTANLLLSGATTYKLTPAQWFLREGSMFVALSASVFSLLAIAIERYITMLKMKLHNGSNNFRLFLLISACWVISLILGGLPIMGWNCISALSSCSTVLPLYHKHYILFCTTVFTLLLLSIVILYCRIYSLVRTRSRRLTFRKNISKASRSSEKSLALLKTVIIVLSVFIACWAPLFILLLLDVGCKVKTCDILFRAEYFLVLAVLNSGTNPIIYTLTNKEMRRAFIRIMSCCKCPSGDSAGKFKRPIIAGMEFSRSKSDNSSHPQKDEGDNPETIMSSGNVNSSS
Target sequence in this assay (P32121 whole entry partner, looked up, the tested form may be a part): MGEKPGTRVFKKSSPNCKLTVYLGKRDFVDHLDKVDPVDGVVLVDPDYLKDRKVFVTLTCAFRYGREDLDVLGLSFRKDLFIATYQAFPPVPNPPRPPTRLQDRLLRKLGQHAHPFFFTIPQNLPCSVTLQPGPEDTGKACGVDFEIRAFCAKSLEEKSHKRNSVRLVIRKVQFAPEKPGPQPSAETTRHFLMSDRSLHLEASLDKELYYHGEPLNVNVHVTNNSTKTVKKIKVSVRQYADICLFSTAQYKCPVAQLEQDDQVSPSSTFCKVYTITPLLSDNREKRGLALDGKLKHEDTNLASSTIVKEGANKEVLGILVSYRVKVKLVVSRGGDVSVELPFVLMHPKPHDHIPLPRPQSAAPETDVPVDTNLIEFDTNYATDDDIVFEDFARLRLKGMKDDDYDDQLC

[3] = target: T1, human sphingosine-1-phosphate receptor 1 (S1P1); test: Inhibition of cAMP production (HTRF cAMP HiRange), S1P1 CHO-K1 cells; type: cell-based; conditions: for Emax: CHO-K1, efficacy (SPAN) normalized to fingolimod, read-out: hS1P1 cAMP SPAN; for hS1P1 cAMP pEC50: inhibition of cAMP production, S1P1 CHO-K1 cells
Outline: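 CHO-K1 cells stably co-expressing human S1P1 (C-terminal Prolink tag) and EA-β-arrestin2 were grown in AssayComplete Media 6 at 37° C. and 5% CO2, plated, and incubated overnight. Agonist-driven inhibition of intracellular cAMP was read by TR-FRET with the HTRF cAMP HiRange kit on a PheraStar reader. Potency is pEC50, and efficacy (SPAN) is normalized to fingolimod.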
Target sequence in this assay (P21453 whole entry, looked up, the tested form may be a part): as the sequence (P21453 whole entry, looked up, the tested form may be a part) above

Row | SMILES | Emax [2] | hS1P1 B-arrestin2 pEC50 [2] | Emax [3] | hS1P1 cAMP pEC50 [3] | inhibition in vivo at 3 mg/kg [1]
1 | CCC1(CC)CC(=O)c2cc(-c3nc(-c4ccc5c(c4)CCC(=O)N5)no3)ccc2O1 [Compound 415, 6-(5-(2,2-diethyl-4-oxochroman-6-yl)-1,2,4-oxadiazol-3-yl)-3,4-dihydroquinolin-2(1H)-one] | – | <5 | – | >6.5 | < 50%
2 | CC(C)Nc1ccc(-c2nc(-c3ccc4c(c3)NC(=O)CC4)no2)cc1C#N [Compound 435, 2-(isopropylamino)-5-(3-(2-oxo-1,2,3,4-tetrahydroquinolin-7-yl)-1,2,4-oxadiazol-5-yl)benzonitrile] | – | >5 | – | >6.5 | > 50%
3 | CC(C)Nc1ccc(-c2nc(-c3ccc4c(c3)CCNC4=O)no2)cc1C#N [Compound 442, 2-(isopropylamino)-5-(3-(1-oxo-1,2,3,4-tetrahydroisoquinolin-6-yl)-1,2,4-oxadiazol-5-yl)benzonitrile] | – | >5 | – | >6.5 | > 50%
4 | N#Cc1cc(-c2nc(-c3ccc4c(c3)NC(=O)CC4)no2)ccc1NCC1CC1 [Compound 471, 2-((cyclopropylmethyl)amino)-5-(3-(2-oxo-1,2,3,4-tetrahydroquinolin-7-yl)-1,2,4-oxadiazol-5-yl)benzonitrile] | – | >5 | – | >6.5 | < 50%
5 | CCC1(CC)CC(=O)c2cc(-c3nc(-c4cncc(N)c4)no3)ccc2O1 [Compound 502, 6-(3-(5-aminopyridin-3-yl)-1,2,4-oxadiazol-5-yl)-2,2-diethylchroman-4-one] | – | >5 | – | >6.5 | > 50%
6 | CCC1(CC)CC(=O)c2cc(-c3nc(-c4ccnc(N)c4)no3)ccc2O1 [Compound 513, 6-(3-(2-aminopyridin-4-yl)-1,2,4-oxadiazol-5-yl)-2,2-diethylchroman-4-one] | – | >5 | – | >6.5 | < 50%
7 | CC(C)Nc1ccc(-c2nc(-c3ccc4c(c3)C(=O)NCC4)no2)cc1C#N [Compound 514, 2-(isopropylamino)-5-(3-(1-oxo-1,2,3,4-tetrahydroisoquinolin-7-yl)-1,2,4-oxadiazol-5-yl)benzonitrile] | – | >5 | – | >6.5 | > 50%
8 | Cc1cn(C)nc1-c1noc(-c2ccc3c(c2)nnn3C(C)C)n1 [Compound 519, 5-[3-(1,4-dimethyl-1H-pyrazol-3-yl)-1,2,4-oxadiazol-5-yl]-1-(propan-2-yl)-1H-1,2,3-benzotriazole] | > 75% | >5 | > 75% | >6.5 | < 50%
9 | CCC1(CC)CC(=O)c2cc(-c3nc(-c4cccnc4F)no3)ccc2O1 [Compound 547, 2,2-diethyl-6-(3-(2-fluoropyridin-3-yl)-1,2,4-oxadiazol-5-yl)chroman-4-one] | – | >5 | – | >6.5 | > 50%
10 | CCC1(CC)CC(=O)c2cc(-c3nc(-c4cnccc4C(F)(F)F)no3)ccc2O1 [Compound 558, 2,2-diethyl-6-(3-(4-(trifluoromethyl)pyridin-3-yl)-1,2,4-oxadiazol-5-yl)chroman-4-one] | – | >5 | – | >6.5 | > 50%
11 | CCC1(CC)CC(=O)c2cc(-c3nc(-c4cccnc4C(F)(F)F)no3)ccc2O1 [Compound 562, 2,2-diethyl-6-(3-(2-(trifluoromethyl)pyridin-3-yl)-1,2,4-oxadiazol-5-yl)chroman-4-one] | – | >5 | – | >6.5 | > 50%
12 | CCC1(CC)CC(=O)c2cc(-c3nc(-c4cncc(C)c4)no3)ccc2O1 [Compound 563, 2,2-diethyl-6-(3-(5-methylpyridin-3-yl)-1,2,4-oxadiazol-5-yl)chroman-4-one] | – | >5 | – | >6.5 | < 50%
13 | CCC1(CC)CC(=O)c2cc(-c3nc(-c4cccnc4C)no3)ccc2O1 [Compound 564, 2,2-diethyl-6-(3-(2-methylpyridin-3-yl)-1,2,4-oxadiazol-5-yl)chroman-4-one] | – | >5 | – | >6.5 | > 50%
14 | CCC1(CC)CC(=O)c2cc(-c3nc(-c4ccc(NS(C)(=O)=O)cc4OC)no3)ccc2O1 [Compound 568, N-{4-[5-(2,2-diethyl-4-oxo-3,4-dihydro-2H-1-benzopyran-6-yl)-1,2,4-oxadiazol-3-yl]-3-methoxyphenyl}methanesulfonamide] | – | >5 | – | >6.5 | < 50%
15 | CCC1(CC)CC(=O)c2cc(-c3nc(-c4ccc(NC(C)=O)cc4OC(F)(F)F)no3)ccc2O1 [Compound 584, N-{4-[5-(2,2-diethyl-4-oxo-3,4-dihydro-2H-1-benzopyran-6-yl)-1,2,4-oxadiazol-3-yl]-3-(trifluoromethoxy)phenyl}acetamide] | > 75% | >5 | > 75% | >6.5 | > 50%

Further lines, with some results ahead:

Row | Emax [2] | hS1P1 B-arrestin2 pEC50 [2] | Emax [3] | hS1P1 cAMP pEC50 [3] | SMILES | inhibition in vivo at 3 mg/kg [1]
16 | > 75% | >5 | > 75% | >6.5 | N#Cc1cc(-c2nnc(-c3ccc4[nH]cnc4c3)o2)ccc1NCCF [Compound 358, 5-[5-(1H-1,3-benzodiazol-5-yl)-1,3,4-oxadiazol-2-yl]-2-[(2-fluoroethyl)amino]benzonitrile] | > 50%
17 | > 75% | >5 | > 75% | >6.5 | N#Cc1cc(-c2nnc(-c3ccc4[nH]cnc4c3)o2)ccc1NCC(F)F [Compound 359, 5-[5-(1H-1,3-benzodiazol-5-yl)-1,3,4-oxadiazol-2-yl]-2-[(2,2-difluoroethyl)amino]benzonitrile] | > 50%
18 | – | >5 | – | >6.5 | N#Cc1cc(-c2nc(-c3ccc4c(c3)CCC(=O)N4)no2)ccc1NCC(F)(F)F [Compound 472, 5-[3-(2-oxo-1,2,3,4-tetrahydroquinolin-6-yl)-1,2,4-oxadiazol-5-yl]-2-[(2,2,2-trifluoroethyl)amino]benzonitrile] | > 50%
19 | – | >5 | – | >6.5 | Cc1nc2cc(-c3nnc(-c4ccc(NC(C)C)c(C#N)c4)o3)ccc2[nH]1 [Compound 560, 5-[5-(2-methyl-1H-1,3-benzodiazol-5-yl)-1,3,4-oxadiazol-2-yl]-2-[(propan-2-yl)amino]benzonitrile] | > 50%
20 | – | >5 | – | >6.5 | CC(C)Nc1ccc(-c2nnc(-c3ccc4ncn(C)c4c3)o2)cc1C#N [Compound 579, 5-[5-(1-methyl-1H-1,3-benzodiazol-6-yl)-1,3,4-oxadiazol-2-yl]-2-[(propan-2-yl)amino]benzonitrile] | > 50%
21 | – | >5 | – | >6.5 | Cn1cnc2ccc(-c3nnc(-c4ccc(NCC(F)F)c(C#N)c4)o3)cc21 [Compound 580, 2-[(2,2-difluoroethyl)amino]-5-[5-(1-methyl-1H-1,3-benzodiazol-6-yl)-1,3,4-oxadiazol-2-yl]benzonitrile] | > 50%
22 | – | >5 | – | >6.5 | CC(C)Nc1ccc(-c2nnc(-c3cccc4[nH]cnc34)o2)cc1C#N [Compound 585, 5-[5-(1H-1,3-benzodiazol-4-yl)-1,3,4-oxadiazol-2-yl]-2-[(propan-2-yl)amino]benzonitrile] | < 50%
23 | – | >5 | – | >6.5 | N#Cc1cc(-c2nnc(-c3cccc4[nH]cnc34)o2)ccc1NCC(F)F [Compound 586, 5-[5-(1H-1,3-benzodiazol-4-yl)-1,3,4-oxadiazol-2-yl]-2-[(2,2-difluoroethyl)amino]benzonitrile] | < 50%
